A short description of data set [1]: Protective index, ratio of TD50 for toxicity in Sprague-Dawley rat assessed as median toxicity dose at ip administration by rotorod test to ED50 for anticonvulsant activity in Sprague-Dawley rat assessed as protection against maximal electroshock induced seizure at ip administration. It counts as organism-based. To be noted: in vivo, read-out: Ratio TD50/ED50. Background: The rotarod test checks motor coordination on a turning rod.

Data set [2] concerns Rattus norvegicus. The experiment in a line: Anticonvulsant activity in Sprague-Dawley rat assessed as protection against maximal electroshock induced seizure at ip administration for 0.25 hrs. It counts as functional.
The test system of data set [3] is Rattus norvegicus. The data set is described as follows: Anticonvulsant activity in Sprague-Dawley rat assessed as protection against hippocampal kindling induced seizure at ip administration for 0.25 hrs. It counts as functional.
In data set [4] the test system is Mus musculus. The data set is described as follows: Anticonvulsant activity in CD-1 mouse assessed as protection against 6-Hz Psychomotor induced seizure at ip administration. It counts as functional.
The subject of data set [5] is Rattus norvegicus. The data set is described as follows: Anticonvulsant activity in Sprague-Dawley rat assessed as protection against maximal electroshock induced seizure at po administrated for 30 mins. It is filed as functional. The following applies: 0.5 h. A general note: In the maximal electroshock model the usual endpoint is tonic extension of the hind limbs.

In data set [6] the test system is Rattus norvegicus. The experiment in a line: Anticonvulsant activity in Sprague-Dawley rat assessed as protection against Sc-Met induced seizure at po administrated for 30 mins. It is filed as functional. The following applies: 0.5 h.
In data set [7] the test system is Mus musculus. The data set is described as follows: Anticonvulsant activity in mouse assessed as protection against Sc-pTZ induced seizure at ip administration for 5 mins. It counts as functional.
Data set [8] relates to Mus musculus. The experiment in a line: Anticonvulsant activity in CF-1 mouse assessed as protection against maximal electroshock induced seizure at ip administrated upto 4 hrs. It counts as functional.
Data set [9] in a line: Protective index, ratio of TD50 for toxicity in CF-1 mouse assessed as median toxicity dose at ip administration upto 4 hrs by rotorod test to ED50 for anticonvulsant activity in CF-1 mouse assessed as protection against maximal electroshock induced seizure at ip administration upto 4 hrs. The following applies: in vivo, read-out: Ratio TD50/ED50. It counts as organism-based.

Data set [10] in a line: Toxicity in CF-1 mouse assessed as median toxic dose at ip administrated upto 4 hrs. It counts as organism-based. To be noted: in vivo.
Data set [11] has as its system Mus musculus. The experiment in a line: Anticonvulsant activity in Swiss albino mouse assessed as protection against PTZ induced seizure at ip administration for 30 mins. It counts as functional. To be noted: 0.5 h.
Data set [12] in a line: Toxicity in Swiss albino mouse assessed as median toxicity dose at ip administration. It counts as organism-based. The following applies: in vivo.
Data set [13] has as its system Rattus norvegicus. The data set is described as follows: Anticonvulsant activity in rat assessed as protection against Sc-metrazol induced seizure at po administration. It counts as functional.
Data set [14] in a line: Protective index, ratio of TD50 for toxicity in rat assessed as median toxicity dose at po administration by rotorod test to ED50 for anticonvulsant activity in rat assessed as protection against maximal electroshock induced seizure at po administration. It counts as organism-based. To be noted: in vivo, read-out: Ratio TD50/ED50.
Data set [15] relates to Mus musculus. The experiment in a line: Anticonvulsant activity in mouse assessed as protection against maximal electroshock induced seizure at po administration. It is filed as functional.
In data set [16] the test system is Rattus norvegicus. The experiment in a line: Anticonvulsant activity in rat assessed as protection against maximal electroshock induced seizure at po administration. It counts as functional.
A short description of data set [17]: Protective index, ratio of TD50 for toxicity in Sprague-Dawley rat at po administration to ED50 for anticonvulsant activity in Sprague-Dawley rat assessed as protection against pilocarpine induced epilepticus at po administration. It counts as organism-based. The following applies: in vivo, read-out: Ratio TD50/ED50.
Data set [18] in a line: Neurotoxicity in Sprague-Dawley rat assessed as median toxic dose at ip administration. It counts as toxicity, organism-based. To be noted: in vivo.
Data set [19] concerns Mus musculus. The experiment in a line: Anticonvulsant activity in Albino mouse assessed as protection against Sc-metrazol induced seizure at ip administration. It counts as functional.
The test system of data set [20] is Mus musculus. The data set is described as follows: Anticonvulsant activity in Albino mouse assessed as protection against maximal electroshock induced seizure at ip administration. It is filed as functional.
The subject of data set [21] is Rattus norvegicus. The experiment in a line: Anticonvulsant activity in Sprague-Dawley rat assessed as protection against pilocarpine induced epilepticus at po administration. It counts as functional.
Data set [22] deals with Mus musculus. The data set is described as follows: Anticonvulsant activity in Albino mouse assessed as protection against 6-Hz psychomotor induced seizure at ip administration. It is filed as functional.
The test system of data set [23] is Rattus norvegicus. The experiment in a line: Anticonvulsant activity in Sprague-Dawley rat assessed as protection against Sc-metrazol induced seizure at po administration. It counts as functional.
Data set [24] is described as follows: Neurotoxicity in CD-1 mouse assessed as reduction in locomotor activity at 600 mg/kg,po administrated for 30 mins. It is filed as toxicity, organism-based. Further details: scale not given: the % may be the effect or the level left. To be noted: in vivo, 0.5 h.
Data set [25] in a line: Neurotoxicity in CD-1 mouse assessed as lethal dose at po administration for 30 mins. It is filed as toxicity, organism-based. To be noted: in vivo.
In data set [26] the test system is Mus musculus. The data set is described as follows: Anticonvulsant activity in CD-1 mouse assessed as recovery time against maximal electroshock induced seizure at 150 mg/kg,po administrated for 30 mins. It is filed as functional. The following applies: 0.5 h.
For data set [27], the system named is Mus musculus. The experiment in a line: Anticonvulsant activity in CD-1 mouse assessed as recovery time against maximal electroshock induced seizure at 600 mg/kg,po administrated for 30 mins. It is filed as functional. The following applies: 0.5 h.
Data set [28] deals with Mus musculus. The data set is described as follows: Anticonvulsant activity in CD-1 mouse assessed as protection against maximal electroshock induced seizure at po administration for 30 mins. It is filed as functional. To be noted: CD-1, 0.5 h.
Data set [29] in a line: Neurotoxicity in CD-1 mouse assessed as reduction in locomotor activity at 300 mg/kg,po administrated for 30 mins. It counts as toxicity, organism-based. Also noted: scale not given: the % may be the effect or the level left. The following applies: in vivo, 0.5 h.
The subject of data set [30] is Mus musculus. The data set is described as follows: Anticonvulsant activity in CD-1 mouse assessed as recovery time against maximal electroshock induced seizure at 300 mg/kg,po administrated for 30 mins. It counts as functional. To be noted: 0.5 h.
Data set [31] relates to Mus musculus. The experiment in a line: Anticonvulsant activity in CD-1 mouse assessed as protection against PTZ induced seizure at po administration for 30 mins. It is filed as functional. To be noted: CD-1, 0.5 h.
Data set [32] is described as follows: Protective index, ratio of TD50 for toxicity in Wistar rat assessed as median toxicity dose at po administration for 4 hrs by rotorod test to ED50 for anticonvulsant activity in Wistar rat assessed as protection against maximal electroshock induced seizure at po administration for 4 hrs. It counts as organism-based. To be noted: in vivo, read-out: Ratio TD50/ED50.

Data set [33] can be described thus: Protective index, ratio of TD50 for toxicity in Wistar rat assessed as median toxicity dose at po administration for 2 hrs by rotorod test to ED50 for anticonvulsant activity in Wistar rat assessed as protection against maximal electroshock induced seizure at po administration for 2 hrs. It counts as organism-based. To be noted: in vivo, read-out: Ratio TD50/ED50.

Data set [34] relates to Rattus norvegicus. The experiment in a line: Anticonvulsant activity in Wistar rat assessed as protection against maximal electroshock induced seizure at po administration for 8 hrs. It is filed as functional.
Data set [35] concerns Rattus norvegicus. The data set is described as follows: Anticonvulsant activity in Wistar rat assessed as protection against maximal electroshock induced seizure at po administration for 2 hrs. It counts as functional.
Data set [36] concerns Rattus norvegicus. The data set is described as follows: Anticonvulsant activity in Wistar rat assessed as protection against maximal electroshock induced seizure at po administration for 4 hrs. It is filed as functional.
Data set [37] can be described thus: Protective index, ratio of TD50 for toxicity in Wistar rat assessed as median toxicity dose at po administration for 8 hrs by rotorod test to ED50 for anticonvulsant activity in Wistar rat assessed as protection against maximal electroshock induced seizure at po administration for 8 hrs. It is filed as organism-based. The following applies: in vivo, read-out: Ratio TD50/ED50.

A short description of data set [38]: Displacement of 3[H]BTX from rat brain membrane voltage-sensitive sodium channel incubated for 1.5 hrs by scintillation counting analysis. It is filed as cell membranes.

By ED50 is commonly meant the midpoint of the dose-response relation. As a reminder, the TD50 is the dose at which the toxic effect under study appears in half of the subjects. For orientation: LD50 means the dose at which mortality reaches 50%. The IC50 is the midpoint of a concentration-inhibition curve.

For `CCCC(CCC)C(=O)NCCN(C)C`, the selectivity ratio in data set [1] was found to be 1.8. Also, the ED50 with Rattus norvegicus [2] is 38.6 mg/kg.

Turning to `CCCC(CCC)C(=O)OCCN(C)C`, the ED50 in the data set on Rattus norvegicus [3] came to 168 mg/kg; with Rattus norvegicus [2] it was 73 mg/kg.

On to `CCC1(C)CC(=O)NC1=O` (stereo unspecified) [ETHOSUXIMIDE], for which the ED50 in the data set on Mus musculus [4] was determined as 222 mg/kg.

Regarding `Cc1cc(C(=O)Nc2c(C)cccc2C)no1`, the ED50 in the data set on Rattus norvegicus [5] was 5.5 mg/kg; in the data set on Rattus norvegicus [6], greater than 250 mg/kg.

Consider `CC(C)(C)NC(=O)C(c1cccc(Br)c1)N1Cc2cnnn2-c2cc(Cl)ccc2C1=O` (stereo unspecified), for which, in the data set with Mus musculus [7], the Activity was found to be 56.94%.

Take `CC1CC(Nc2ccon2)=CC(=O)C1C(=O)OC(C)(C)C` (stereo unspecified): in the data set on Mus musculus [8], the 50% effective dose (ED50) was determined as 28.1 mg/kg. In addition, the selectivity ratio at 4 h in data set [9] was greater than 17.8. Further, in data set [10], the TD50 at 4 h is greater than 500 mg/kg.

Consider `CCCC(CCC)c1nnc(Nc2ccccc2)s1`, for which the ED50 with Mus musculus [11] stood at 187 mg/kg. Moreover, the TD50 in data set [12] came to 419 mg/kg.

On to `CC1(C)C(C(=O)NC(N)=O)C1(C)C` [2,2,3,3-TETRAMETHYLCYCLOPROPANECARBONYLUREA], for which the figures for the ED50 with Rattus norvegicus [13], with Mus musculus [15] and in the data set with Rattus norvegicus [16] were 92 mg/kg, 90 mg/kg and 29 mg/kg, respectively. Moreover, the selectivity ratio in [14] was 18.5.

Turning to `CCCC(CC)C(=O)NOC` (stereo unspecified), in data set [17], the selectivity ratio was greater than 5.5. The TD50 in data set [18] came to 118 mg/kg. In addition, the ED50 in the data set on Mus musculus [19] turned out to be 70 mg/kg; in the data set on Mus musculus [20], 142 mg/kg; with Rattus norvegicus [21], 200 mg/kg; in the data set on Mus musculus [22], 50 mg/kg; in the data set with Rattus norvegicus [23], 36 mg/kg.

`COC(=O)C1C(=O)C=C(Nc2cc(C)on2)CC1C` (stereo unspecified): in data set [9], the selectivity ratio at 4 h was greater than 7.3. The TD50 at 4 h in [10] is greater than 500 mg/kg.

`CCCC(CCC)C(=O)Nc1ccccc1O`: the Activity is 2.78% in data set [24] and 60% in data set [29]. The LD50 at 0.5 h in data set [25] is 937 mg/kg. Moreover, the Time is on record as 93.26 s with Mus musculus [26], 5.75 s in the data set on Mus musculus [27] and 30.66 s with Mus musculus [30]. Further, the ED50 with Mus musculus [28] stood at 370 mg/kg; with Mus musculus [31], 348 mg/kg.

Consider `NC(=O)N1c2ccccc2C/C(=N/O)c2ccccc21`, for which the selectivity ratio at 4 h in data set [32] is greater than 100. The selectivity ratio at 2 h in [33] was greater than 166. For the same molecule, the ED50 was found to be 17 mg/kg in the data set on Rattus norvegicus [34], 12 mg/kg with Rattus norvegicus [35] and 20 mg/kg in the data set with Rattus norvegicus [36]. In addition, in [37], the selectivity ratio at 8 h is greater than 117. In data set [38], this molecule showed a concentration for half-maximal inhibition (IC50) of 418 µM.

These data come from ChEMBL document CHEMBL5241104, “Reactive metabolites of the anticonvulsant drugs and approaches to minimize the adverse drug reaction” (Eur J Med Chem, 2021).
